Data reported in patent publication US9365830B2, “Agents and methods for inhibiting human pluripotent stem cell growth” (VIACYTE, INC., priority 2010, dated 2016).
Where a name gives a salt, the structure may show the parent alone. Read-outs that look alike come from different tables or passages of the source.

Experiments:
Assay type in all cases: cell-based, human
hESCs = assay: Secondary screen, lowest effective dose on hESCs; conditions: lowest concentration that elicited cytotoxicity, range 0.1 to 50 μM, read-out: ED hESC (lowest effective dose)
Method: To expand the number of potential candidate hESC cytotoxic and inhibitory compounds, the complete LOPAC1280™ collection (containing 1,280 compounds) was screened. In the primary screen, cytotoxicity was tested on undifferentiated hESCs (about 3×10^4 BG01 cells) in 16 standard 96-well trays, in DC-HAIF defined medium on growth factor-reduced MATRIGEL™ diluted 1:200, which were fed daily (FIG. 7A). 10 μM of each compound was added to the hESCs one day after plating, and the cells were cultured for an additional 2 days. Plates were then fixed and stained for alkaline phosphatase (AP) to identify relative decreases in proliferation or growth of hESCs (as reduced AP staining), indicative of lower proportions of hESCs. See the circled wells in FIG. 7A.
(§1) Using a range of different concentrations from 0.1 to 50 μM, the forty compounds in Table 6 were re-screened (secondary screen) using hESCS and NPCs. The effective dose (ED) was defined as the lowest concentration of a compound that elicited cytotoxicity during the secondary screen. […] The darker wells were indicative of the increased numbers or percentages of proliferating or growing pluripotent stem cells in the wells. In addition, these 40 compounds were screened on differentiating definitive endoderm (DE) cell cultures in 96-well plate impedance assays (described above) to determine which of these compounds were not cytotoxic to definitive endoderm cells at the lowest effective dose on either hESC or NPC. […] See “ACEA DE” column in Table 6.

NPCs = assay: Secondary screen, lowest effective dose on NPCs; conditions: lowest concentration that elicited cytotoxicity, range 0.1 to 50 μM, read-out: ED NPC (lowest effective dose)
Method: In addition, the complete LOPAC1280™ collection was also screened for effects on neural progenitor cells (NPCs) that were derived from the hESCs. Neural progenitors were plated in serum-free MedII conditioned medium at 6×10^4 cells/well and fed daily. Two days after plating, 10 μM of each compound was added and the cells were cultured for an additional 2 days. […] Reduced crystal violet staining was indicative of lower proportions of NPCs. See circled wells in FIG. 7B. The left and right columns of the LOPAC1280™ plates from which the compounds were dispensed were empty and served as untreated controls. […] See Table 6 below listing the name and class of activity of each candidate compound identified in this screen (except chelerythrine chloride, which is listed in Table 5). ChCl was not included in the subsequent round of screening. Therefore only 40 compounds were tested further.
as §1

[1] = test system: differentiating definitive endoderm (DE) cell cultures; assay: 96-well plate impedance assay (ACEA) on differentiating definitive endoderm at lowest effective dose; design: key: Viable: Compounds that did not appear to be cytotoxic toward differentiating DE cultures were marked as “viable”, meaning that the compound did not affect the survival, growth, proliferation or differentiation of the differentiated cells; conditions: at the lowest effective dose on either hESC or NPC
From the text: The impedance assay on the hESCs using the compounds in Table 4 above gave greater than twenty (20) hits. However, the ideal candidate compound of the present invention should not only be inhibitory or cytotoxic to human pluripotent stem cells, such as hESCs or hIPSCs, but should at the same time have no effect on cell viability of differentiated or differentiating cell populations including Stage 1, 2, 3, 4 and 5 type cells cultures (definitive endoderm, foregut endoderm, posterior foregut, pancreatic endoderm and endocrine cells, respectively). […] Approximately 3×10^4 hES cells were plated per well and grown for 24 hrs in DC-HAIF defined medium (i.e. StemPro® hESC SFM medium (Life Technologies, Carlsbad, Calif.). Stage 1 or definitive endoderm differentiation was then induced by changing the medium and culturing in RPMI, 100 ng/mL Activin A, and 10 ng/mL of FGF2. […] of GSK-3 beta Inhibitor 15 (Calbiochem #361558) as added to the culture for the first 24 hours of differentiation only. 10 μM of each of the candidate compounds were added about 48 hours or 2 days after differentiation was induced (see FIGS. 3 C & D, large arrowhead), and the cells were cultured for an additional 2 days.
as §1

COc1cc2c(cc1O)CC[C@@H]1[C@@H]2CC[C@]2(C)[C@@H](O)CC[C@@H]12 [2-methoxyestradiol]
minimal effective concentration (hESCs): 10 µM
minimal effective concentration (NPCs): 1 µM

Oc1cc(-c2ccccc2)nc2nc(Cl)ccc12 [7-Chloro-4-hydroxy-2-phenyl-1,8-naphthyridine]
minimal effective concentration (hESCs; Homo sapiens): 5 µM
ACEA DE [1]: Viable
minimal effective concentration (NPCs; Homo sapiens, 48 h): 5 µM

CC[n+]1c(/C=C/C=C2/N(C)c3ccccc3C2(C)C)sc2ccccc21.[I-] [AC-93253 iodide]
minimal effective concentration (hESCs): 5 µM
minimal effective concentration (NPCs): <0.1 µM

N [Ammonium]
minimal effective concentration (hESCs): 10 µM
ACEA DE [1]: Viable
minimal effective concentration (NPCs): >50 µM

COc1cc(NS(C)(=O)=O)ccc1Nc1c2ccccc2nc2ccccc12 [Amsacrine hydrochloride]
minimal effective concentration (hESCs; Homo sapiens): 1 µM
minimal effective concentration (NPCs; Homo sapiens, 48 h): 0.1 µM

C[C@H]1CCC/C=C/[C@@H]2C[C@H](O)C[C@H]2[C@H](O)/C=C/C(=O)O1 [Brefeldin A from Penicillium]
minimal effective concentration (hESCs): <0.1 µM
minimal effective concentration (NPCs): <0.1 µM

O=C(/C=C/c1ccc(O)c(O)c1)OCCc1ccccc1 [Caffeic acid phenethyl ester]
minimal effective concentration (hESCs; Homo sapiens): < 0.1 µM
ACEA DE [1]: Viable
minimal effective concentration (NPCs; Homo sapiens, 48 h): 5 µM

CNc1ccc2oc(C[C@H]3O[C@@]4(CC[C@H]3C)O[C@H]([C@H](C)C(=O)c3ccc[nH]3)[C@H](C)C[C@H]4C)nc2c1C(=O)O [Calcimycin]
minimal effective concentration (hESCs; Homo sapiens): 1 µM
minimal effective concentration (NPCs; Homo sapiens, 48 h): < 0.1 µM

Clc1ccc(C(c2ccc(Cl)cc2)n2cc[n+](CC(OCc3ccc(Cl)cc3Cl)c3ccc(Cl)cc3Cl)c2)cc1 (stereo not drawn) [Calmidazolium chloride]
minimal effective concentration (hESCs; Homo sapiens): 5 µM
ACEA DE [1]: Viable
minimal effective concentration (NPCs; Homo sapiens, 48 h): 5 µM

Oc1cc2c(cc1O)CN(C(=S)NCCc1ccc(Cl)cc1)CCC2 [Capsazepine]
minimal effective concentration (hESCs; Homo sapiens): 5 µM
ACEA DE [1]: Viable
minimal effective concentration (NPCs; Homo sapiens, 48 h): 25 µM

Cc1cc(N)c2ccccc2[n+]1CCCCCCCCCC[n+]1c(C)cc(N)c2ccccc21 [Dequalinium chloride hydrate]
minimal effective concentration (hESCs; Homo sapiens): 5 µM
minimal effective concentration (NPCs; Homo sapiens, 48 h): 5 µM

C[C@@H]1O[C@@H](O[C@H]2C[C@@H](O)[C@]3(CO)[C@H]4[C@H](O)C[C@]5(C)[C@@H]([C@@H]6COC(=O)C6)CC[C@]5(O)[C@@H]4CC[C@]3(O)C2)[C@H](O)[C@H](O)[C@H]1O [Dihydroouabain]
minimal effective concentration (hESCs): 1 µM
minimal effective concentration (NPCs): <0.1 µM

c1ccc2c(c1)[I+]c1ccccc1-2 [Diphenyleneiodonium chloride]
minimal effective concentration (hESCs; Homo sapiens): 0.1 µM
minimal effective concentration (NPCs; Homo sapiens, 48 h): < 0.1 µM

O=c1[nH]c2ccccc2n1CCCN1CCC(n2c(=O)[nH]c3cc(Cl)ccc32)CC1 [Domperidone]
minimal effective concentration (hESCs; Homo sapiens): 25 µM
ACEA DE [1]: Viable
minimal effective concentration (NPCs; Homo sapiens, 48 h): 0.1 µM

CC[C@H]1CN2CCc3cc(OC)c(OC)cc3[C@@H]2C[C@@H]1C[C@H]1NCCc2cc(OC)c(OC)cc21 [Emetine dihydrochloride hydrate]
minimal effective concentration (hESCs; Homo sapiens): < 0.1 µM
minimal effective concentration (NPCs; Homo sapiens, 48 h): 0.1 µM

CNC(=O)[C@H]1O[C@@H](n2cnc3c(NCc4cccc(I)c4)ncnc32)[C@H](O)[C@@H]1O [IB-MECA]
minimal effective concentration (hESCs): 50 µM
minimal effective concentration (NPCs): >50 µM

Ic1ccccc1CNC1C2CCN(CC2)C1C(c1ccccc1)c1ccccc1.O=C(O)C(=O)O [L-703,606 oxalate]
minimal effective concentration (hESCs): 25 µM
minimal effective concentration (NPCs): >50 µM

COC(=O)C1=C(C)NC(C)=C(C(=O)OC(C)(C)CN(C)CCC(c2ccccc2)c2ccccc2)C1c1cccc([N+](=O)[O-])c1 (stereo not drawn) [Lercanidipine hydrochloride]
minimal effective concentration (hESCs; Homo sapiens): 10 µM
minimal effective concentration (NPCs; Homo sapiens, 48 h): 10 µM

CC[N+](CC)(CC)CCOc1ccc(/C=C/c2ccccc2)cc1 [MG 624]
minimal effective concentration (hESCs; Homo sapiens): 0.1 µM
ACEA DE [1]: Viable
minimal effective concentration (NPCs; Homo sapiens, 48 h): 5 µM

COCC(=O)O[C@]1(CCN(C)CCCc2nc3ccccc3[nH]2)CCc2cc(F)ccc2[C@@H]1C(C)C [Mibefradil dihydrochloride]
minimal effective concentration (hESCs; Homo sapiens): 25 µM
minimal effective concentration (NPCs; Homo sapiens, 48 h): 25 µM

CCCCCCCC/C=C\CCCCCCCC(=O)NCCc1ccc(O)c(O)c1 [N-Oleoyldopamine]
minimal effective concentration (hESCs; Homo sapiens): 5 µM
ACEA DE [1]: Viable
minimal effective concentration (NPCs; Homo sapiens, 48 h): 1 µM

CC(C)[C@H]1c2ccc(F)cc2CC[C@@]1(CCN(C)CCCc1nc2ccccc2[nH]1)OC(=O)C1CC1 [NNC 55-0396]
minimal effective concentration (hESCs): 25 µM
minimal effective concentration (NPCs): 5 µM

C[C@@H]1O[C@@H](O[C@H]2C[C@@H](O)[C@]3(CO)[C@H]4[C@H](O)C[C@]5(C)[C@@H](C6=CC(=O)OC6)CC[C@]5(O)[C@@H]4CC[C@]3(O)C2)[C@H](O)[C@H](O)[C@H]1O [Ouabain]
minimal effective concentration (hESCs; Homo sapiens): < 0.1 µM
minimal effective concentration (NPCs; Homo sapiens, 48 h): < 0.1 µM

Nc1ccc(CCN2CCN(c3cccc(C(F)(F)F)c3)CC2)cc1 [PAPP]
minimal effective concentration (hESCs): 25 µM
minimal effective concentration (NPCs): >50 µM

N=C(N)c1ccc(OCCCCCOc2ccc(C(=N)N)cc2)cc1 [Pentamidine isethionate]
minimal effective concentration (hESCs; Homo sapiens): 1 µM
ACEA DE [1]: Viable
minimal effective concentration (NPCs; Homo sapiens, 48 h): 25 µM

COc1cc([C@@H]2c3cc4c(cc3[C@H](O)[C@H]3COC(=O)[C@H]23)OCO4)cc(OC)c1OC [Podophyllotoxin]
minimal effective concentration (hESCs; Homo sapiens): < 0.1 µM
ACEA DE [1]: Viable

C=CC1=C(C)c2cc3[nH]c(cc4nc(cc5[nH]c(cc1n2)c(C)c5CCC(=O)O)C(CCC(=O)O)=C4C)c(C)c3C=C [Protoporphyrin IX disodium]
minimal effective concentration (hESCs; Homo sapiens): 10 µM
ACEA DE [1]: Viable
minimal effective concentration (NPCs; Homo sapiens, 48 h): > 50 µM

Oc1ccccc1O [Pyrocatechol]
minimal effective concentration (hESCs; Homo sapiens): 5 µM
ACEA DE [1]: Viable
minimal effective concentration (NPCs; Homo sapiens, 48 h): 5 µM

CCN(CC)CCCC(C)Nc1c2ccc(Cl)cc2nc2ccc(OC)cc12 (stereo not drawn) [Quinacrine dihydrochloride]
minimal effective concentration (hESCs; Homo sapiens): 10 µM
ACEA DE [1]: Viable
minimal effective concentration (NPCs; Homo sapiens, 48 h): 25 µM

CC1=C(/C=C/C(C)=C/C=C/C(C)=C/C(=O)Nc2ccc(O)cc2)C(C)(C)CCC1 [Retinoic acid p-hydroxyanilide]
minimal effective concentration (hESCs): 1 µM
ACEA DE [1]: Viable
minimal effective concentration (NPCs): 5 µM

Cc1nc(-c2ccc(-c3ccc(C(=O)N4CCc5cc6c(cc54)C4(CCN(C)CC4)CO6)cc3)c(C)c2)no1 [SB 224289 hydrochloride]
minimal effective concentration (hESCs; Homo sapiens): 25 µM
minimal effective concentration (NPCs; Homo sapiens, 48 h): 50 µM

COc1ccc(CCCOC(Cn2ccnc2)c2ccc(OC)cc2)cc1 (stereo not drawn) [SKF 96365]
minimal effective concentration (hESCs; Homo sapiens): 25 µM
ACEA DE [1]: Viable
minimal effective concentration (NPCs; Homo sapiens, 48 h): 5 µM

CC(C)(C)c1ccc(C(O)CCCN2CCC(C(O)(c3ccccc3)c3ccccc3)CC2)cc1 (stereo not drawn) [Terfenadine]
minimal effective concentration (hESCs; Homo sapiens): 25 µM
minimal effective concentration (NPCs; Homo sapiens, 48 h): 10 µM

COc1ccc2c(c1)CC[C@@H]1[C@@H]2CC[C@]2(C)[C@@H](NCCCCCCN3C(=O)CCC3=O)CC[C@@H]12 [U-73343]
minimal effective concentration (hESCs): 10 µM
ACEA DE [1]: Viable
minimal effective concentration (NPCs): 5 µM

CC1(C)CCC2=C(O1)c1ccccc1C(=O)C2=O [beta-Lapachone]
minimal effective concentration (hESCs; Homo sapiens): 5 µM
minimal effective concentration (NPCs; Homo sapiens, 48 h): 5 µM

Vinblastine sulfate salt
minimal effective concentration (hESCs): <0.1 µM
minimal effective concentration (NPCs): <0.1 µM
